Patent publication US6413974B1, “6,9,-disubstituted 2-[trans-(4-aminocyclohexyl) amino] purines” (Aventis Pharmaceuticals Inc., priority 1998, dated 2002)
Values joined by “and” are separate entries in the source; they are usually repeats but may differ in a detail not shown here. Equal entries are not always repeated. Structures can show the parent of a compound that is named as a salt. Where two headings read alike, the source gives them in different places.

Key:
cdk2/cyclin E = biological target: T1, cdk2/cyclin E (Homo sapiens, UniProt P24941); test: Cyclin-Dependent Kinase 2 Assay (cdk-2 inhibition); format: biochemical; conditions: GST-Rb substrate, 30 min at 30° C.
T1 construct: made in house; host or cells: insect cells (baculovirus co-infection)
Description: (§1) The transformed bacteria were grown overnight to saturation, then diluted in YT broth and incubated at 37° C. for 2 h. The protein was induced by incubation with 0.1 mM isopropylthioglycoside for 3 h. Following sedimentation by centrifugation, the cells were lysed by sonication in STE buffer ([…] NaCl, 10 mM Tris, pH 8.0, 1 mM EDTA) containing 10% sarkosyl. Particulate matter was removed by centrifugation and the lysate was incubated with glutathione-Sepharose at 4° C. The beads were washed with kinase buffer and then quantitation of Coomassie blue-stained proteins separated by SDS-PAGE was performed using a protein standard of known concentration.
(§2) Pre-wet Millipore Multiscreen 96-well filter plates (0.65 μm Durapore filters) with 200 μl kinase buffer (50 mM HEPES, pH 7.5, 10 mM MgCl2, 1 mM EGTA). GST-Rb (0.5 μg) bound to glutathione-Sepharose beads is added in 50 μl per well and the solution removed by application of vacuum. […] Add 0.1 μg cdk4/cyclin D1 (insect cell lysate) to initiate assay. Incubate 30 min at 37° C. Terminate reaction by filtration on Millipore Vacuum Manifold. Wash four times with TNEN (20 mM Tris, pH 8.0, 100 mM Na Cl, 1 mM EDTA, 0.5% nonidet P-40). After drying the plates at room temperature, the filter plates were placed in adapter plates (Packard) and 40 μl of Microscint-O® (Packard) was added to each well. Top Seal A film was used to cover the plates before counting in a Top Count Scintillation Counter.
GST-Rb as described above for cdk4/cyclin D1
Assay conditions for cdk2/cyclin E were identical to those for cdk4/cyclin D1 including the substrate. The concentration of recombinant cdk2/cyclin E in the assay was 0.1 μg per 100 μl assay. Incubation was for 30 min at 30° C.

HT-29 = test: In vitro tumor cell proliferation, HT-29; format: cell-based, human; conditions: read-out: In vitro Tumor Cell Proliferation (IC50, μM) Colon HT-29 (converted)
Description: (§3) The proliferation of tumor cells was measured using a sulforhodamine B assay as described in Skehan, P., et al., J. Natl. Cancer Inst. […] Tumor cells were harvested with trypsin-EDTA, cells that excluded trypan blue were counted, added to 96-well plates and incubated overnight at 37° C. Drug was added to the wells following dilution in culture medium. Three days later, the medium was removed and replenished with medium containing fresh drug and incubated an additional 4 days. The cells were then fixed with 0.1 ml 10% trichloroacetic acid for 60 min at 4° C. The plates were rinsed five times with tap water, air-dried and stained for 30 min with 0.4% sulforhodamine B in 1% acetic acid and air-dried.
(§4) Alternatively, the CyQUANT cell proliferation assay was used to quantify tumor cell proliferation. Tumor cells were harvested with trypsin-EDTA, cells that excluded trypan blue were counted, added to 96-well plates and incubated overnight at 37° C. Drug was added to the wells following dilution in culture medium. Three days later the medium was removed and the plates frozen at −80° C. for at least 30 minutes.
HT-29 is a human colon adenocarcinoma, moderately well-differentiated grade II (HTB 38);

PC-3 = test: In vitro tumor cell proliferation, PC-3; format: cell-based, human; conditions: read-out: In vitro Tumor Cell Proliferation (IC50, μM) Prostate PC-3
Description: as §3, §4

DMS-114 = test: In vitro tumor cell proliferation, DMS-114; format: cell-based, human; conditions: read-out: In vitro Tumor Cell Proliferation (IC50, μM) Lung DMS-114
Description: as §3, §4

A549 = test: In vitro tumor cell proliferation, A549; format: cell-based, human; conditions: read-out: In vitro Tumor Cell Proliferation (IC50, μM) Lung A549
Description: as §3, §4

cdk4/cyclin D1 = biological target: T2, cdk4/cyclin D1 (Homo sapiens, UniProt P11802); test: Cyclin-dependent kinase 4 Assay; format: biochemical; conditions: cdk4/cyclin D1, GST-Rb substrate, 10 μM ATP, 30 min at 37° C.; read-out: CDK4 Inhibition IC50
T2 construct: made in house; host or cells: Sf9 insect cells (Bac-to-Bac baculovirus, pFastBac)
Description: The IC50 values for cdk-4 inhibition were by the following method:
as §1
The cDNA for human cyclin D1 was cloned by RT PCR using […] from MCF-7 cells. […] Bacmid DNA was used to transfect Sf9 insect cells to produce recombinant virus. Following plaque purification of the virus, the viral preparations were amplified until high titer stocks were acheived.
Lysates were prepared by lysis of Sf9 cells coinfected with cdk4 and cyclin D1 in 50 mM HEPES, pH 7.5, 10 mM MgCl2, 1 mM DTT, 0.1 mM phenylmethylsulfonyl fluoride, 5 μg/ml aprotinin, and 5 μg/ml leupeptin using a PARR bomb under 500 p.s.i nitrogen pressure for 5 min at 4° C. Insoluble material was sedimented at 10,000×g for 20 min at 4° C. Glycerol was added to the supernatant to 10% and stored at −80° C. in aliquots.
as §2

Colo-205 = test: In vitro tumor cell proliferation, Colo-205; format: cell-based, human; conditions: read-out: In vitro Tumor Cell Proliferation (IC50, μM) Colon Colo-205
Description: as §3, §4

MDA-MB-231 = test: In vitro tumor cell proliferation, MDA-MB-231; format: cell-based, human; conditions: read-out: In vitro Tumor Cell Proliferation (IC50, μM) Breast MDA-MB-231
Description: as §3, §4

MDA-MB-435 = test: In vitro tumor cell proliferation, MDA-MB-435; format: cell-based, human; conditions: read-out: In vitro Tumor Cell Proliferation (IC50, μM) Breast MDA-MB-435
Description: as §3, §4

DU 145 = test: In vitro tumor cell proliferation, DU 145; format: cell-based, human; conditions: read-out: In vitro Tumor Cell Proliferation (IC50, μM) Prostate DUI45
Description: as §3, §4

[1] = Homo sapiens, HT-29, values marked * (mark not explained)
[2] = values marked * (mark not explained), dihydrochloride
[3] = Homo sapiens, PC-3, values marked * (mark not explained)
[4] = Homo sapiens, DMS-114, values marked * (mark not explained)
[5] = Homo sapiens, A549, values marked * (mark not explained)
[6] = Homo sapiens, COLO 205, values marked * (mark not explained)
[7] = Homo sapiens, MDA-MB-231, values marked * (mark not explained)
[8] = Homo sapiens, MDA-MB-435, values marked * (mark not explained)
[9] = Homo sapiens, DU-145, values marked * (mark not explained)

T2 sequence (P11802 whole entry): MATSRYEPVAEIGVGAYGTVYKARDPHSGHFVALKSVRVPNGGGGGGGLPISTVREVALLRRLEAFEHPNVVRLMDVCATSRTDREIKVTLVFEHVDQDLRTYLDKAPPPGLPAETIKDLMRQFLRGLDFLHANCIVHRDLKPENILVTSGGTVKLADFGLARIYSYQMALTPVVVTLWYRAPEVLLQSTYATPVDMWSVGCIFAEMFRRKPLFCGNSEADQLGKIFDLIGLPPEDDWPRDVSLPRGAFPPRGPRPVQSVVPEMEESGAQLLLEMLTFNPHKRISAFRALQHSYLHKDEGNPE
T2 sequence (P24385 whole entry partner): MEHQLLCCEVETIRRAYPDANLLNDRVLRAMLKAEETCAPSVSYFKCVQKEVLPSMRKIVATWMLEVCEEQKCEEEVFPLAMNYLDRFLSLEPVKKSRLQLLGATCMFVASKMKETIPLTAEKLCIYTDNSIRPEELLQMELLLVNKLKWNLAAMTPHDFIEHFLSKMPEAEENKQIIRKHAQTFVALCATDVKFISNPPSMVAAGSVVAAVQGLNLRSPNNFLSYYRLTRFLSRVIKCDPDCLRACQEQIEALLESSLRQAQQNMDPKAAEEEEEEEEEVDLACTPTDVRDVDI

| IC50 (cdk2/cyclin E) | IC50 (HT-29; [1]) [µM] | IC50 (HT-29; [2]) [µM] | IC50 (PC-3; [3]) [µM] | IC50 (PC-3; [2]) [µM] | IC50 (DMS-114; [4]) [µM] | IC50 (DMS-114; [2]) [µM] | IC50 (A549; [5]) [µM] | IC50 (A549; [2]) [µM] | IC50 (cdk4/cyclin D1) | IC50 (Colo-205; [6]) [µM] | IC50 (Colo-205; [2]) [µM] | IC50 (MDA-MB-231; [7]) [µM] | IC50 (MDA-MB-231; [2]) [µM] | IC50 (MDA-MB-435; [8]) [µM] | IC50 (MDA-MB-435; [2]) [µM] | IC50 (DU 145; [9]) [µM] | IC50 (DU 145; [2]) [µM] | Compound |
| --- | --- | --- | --- | --- | --- | --- | --- | --- | --- | --- | --- | --- | --- | --- | --- | --- | --- | --- |
| 0.253 µM | 5.6 | 5.4 | 3 | 4.4 | 3 | 2.7 | 2.7 | 2.5 | 2.2 µM and 1.6 µM | 3.4 | 3.2 | 4.2 | 5.6 | 9.5 | 8 | 3.7 | 3.2 | N[C@H]1CC[C@H](Nc2nc(NNCCc3ccccc3)c3ncn(C4CCCC4)c3n2)CC1 [Example 35, 2-[Trans-(4-aminocyclohexyl)amino]-6-[2-phenethylhydrazino]-9-cyclopentylpurine dihydrochloride] |
| 0.24 µM | 19 | – | 11 | – | 9.7 | 8 | – | 8.3 | 7 µM | – | 11 | 24 | – | 19 | 16 | > 20 | 10 | CCCCNc1nc(N[C@H]2CC[C@H](N)CC2)nc2c1ncn2C(C)C [Example 37, 2-[Trans-(4-aminocyclohexyl)amino]-6-[(butyl)amino]-9-(2-propyl)purine dihydrochloride] |
| 0.115 µM | 2.5 | 3.4 | 2.7 | 4.4 | – | – | 2.8 | 2.5 | 0.86 µM | 3.5 | 6.3 | 2.2 | 3.5 | 3.8 | 3.1 | 4.9 | 3.6 | NCCCCCCCCNc1nc(N[C@H]2CC[C@H](N)CC2)nc2c1ncn2C1CCCC1 [Example 56, 2-[Trans-(4-amninocyclohexyl)amino]-6-[(8-aminooctyl)amino]-9-cyclopentylpurine dihydrochloride] |
| 0.22 µM | 11 | 12 | 7.9 | 6.1 | 15 | 11 | – | – | 0.3 µM and 0.2 µM | 6.4 | 6.2 | 6 | – | 8.7 | 9.4 | 10 | – | N[C@H]1CC[C@H](Nc2nc(NCCc3ccccn3)c3ncn(C4CCCC4)c3n2)CC1 [Example 12, 2-[Trans-(4-aminocyclohexyl)amino]-6-[2-(2-pyridyl)ethylamino]-9-cyclopentylpurine dihydrochloride] |
| 0.013 µM and 0.026 µM | – | – | 3.4 | 5.9 | 16 | 17 | 12 | 9.3 | 0.29 µM and 0.094 µM and 0.075 µM | 5.1 | 5 | 6.7 | 8.5 | 12 | 11 | 7.5 | 11 | N[C@H]1CC[C@H](Nc2nc(NCCCO)c3ncn(C4CCCC4)c3n2)CC1 [Example 53, 2-[Trans-(4-aminocyclohexyl)amino]-6-[(3-hydroxypropyl)amino]-9-cyclopentylpurine dihydrochloride] |
| 0.35 µM | 2.7 | 2 | 1.2 | 1.5 | 2.7 | 2.9 | – | – | 0.05 µM and 0.1 µM | 1.3 | 1.4 | 1.9 | 1.7 | 2.7 | 2.3 | 6.4 | 6.1 | N[C@H]1CC[C@H](Nc2nc(NCc3nc4ccccc4[nH]3)c3ncn(C4CCCC4)c3n2)CC1 [Example 19, 2-[Trans-(4-aminocyclohexyl)amino]-6-[(2-benzimidazolyl)methylamino]-9-cyclopentylpurine dihydrochloride] |
| 0.042 µM | – | – | 5.7 | 7.2 | 3.1 | 2.8 | 1.6 | 1.1 | 0.29 µM and 0.38 µM | 2.4 | 1.6 | 2.9 | 3.2 | 5.7 | 4.4 | 2.4 | 2.8 | NCCCCNc1nc(N[C@H]2CC[C@H](N)CC2)nc2c1ncn2C1CCCC1 [Example 5, 2-[Trans-(4-aminocyclohexyl)amino]-6-[(4-aminobutyl)amino]-9-cyclopentylpurine dihydrochloride] |
| 0.06 µM | – | – | 8 | 4.6 | 16 | 24 | 15 | – | 0.3 µM | 6.3 | 7.8 | 7.9 | 7 | 11 | – | 10 | 9 | N[C@H]1CC[C@H](Nc2nc(NCCc3cccnc3)c3ncn(C4CCCC4)c3n2)CC1 [Example 7, 2-[Trans-(4-aminocyclohexyl)amino]-6-[(3-pyridyl)-2-ethylamino]-9-cyclopentylpurine dihydrochloride] |
